# Laboratory results reported in patent US11459570B2, “Transgenic mouse expressing amyloid precursor protein that has olfactory neuron degeneration” (The General Hospital Corporation, priority 2014, dated 2022).
# How the values were obtained:
# [1] = test system: neuronal differentiated ReNcell VM cells; test: Viability of differentiated ReNcell VM neurons transfected with poly IC (Celltiter-Glo); type: cell-based, human; settings: escalating doses of poly IC, after 2 days (48 hours) in culture
# Experimental: (§1) FIGS. 12A-G. dsRNA induces a Type I interferon response and is sufficient to induced neurodegeneration in human neurons. A-E) Representative transmitted light images of differentiated ReNVM neurons transfected with increasing doses of PolyIC, a dsRNA mimetic, showing a dose-dependent loss of neurons after 48 hours.
# (§2) Cytoplasmic dsRNA is sensed by three different proteins, PKR, MDA5, and RIG-I, that are components of the innate immune system. Engagement of each protein by dsRNA induces interferon signaling and neurodegeneration. […] To determine if cytoplasmic dsRNA was sufficient to mediate neurodegeneration in a human neurons, we transfected neuronal differentiated ReNcell VM cells, a human neural cell line derived from ventral mesencephalon, with escalating doses of poly IC (which mimics a GC dinucleotide repeat).
# cortical neurons = settings: rats; cited from earlier work
# OSNs = settings: mice, intranasal instillation; cited from earlier work
# MDA5 and PKR = test: Western blots of type I interferon-stimulated genes in differentiated ReNVM cells after PolyIC transfection; type: cell-based, human; settings: western blot, 24 hour post transfection with PolyIC
# Experimental: as §1, §2
substance,measurement,setting,value
polyinosinic-polycytidylic acid [poly IC],viability of ReNVM neurons relative to mock-transfected neurons,[1],dose-dependent reduction in their viability
same,viability of ReNVM neurons relative to mock-transfected neurons,[1]; listed as PolyIC,dose-dependent loss in cell viability
same,degeneration of cortical neurons,cortical neurons,causes degeneration
same,degeneration of OSNs,OSNs,causes degeneration
same,"protein expression of type I interferon-stimulated genes (MDA5, PKR)",MDA5 and PKR,massive induction of MDA5 and PKR
same,"protein expression of type I interferon-stimulated genes (MDA5, PKR)",MDA5 and PKR; listed as PolyIC,elevated protein expression of type I interferon-stimulated genes
